Laboratory results published in article PMC7582507, “SARs for the Antiparasitic Plant Metabolite Pulchrol. Part 2: B- and C-Ring Substituents” (Molecules, 2020).
Read-outs that look alike come from different tables or passages of the source.

Key:
[1] = system: Trypanosoma cruzi epimastigotes; test: Trypanocidal activity against T. cruzi epimastigotes (XTT, 72 h); format: cell-based; settings: for IC50: 72 h; for selectivity ratio at 72 h: mouse (RAW cells), Trypanosoma cruzi (parasite), RAW 264.7 macrophage cells versus T. cruzi epimastigotes, read-out: T. cruzi SI (selectivity index, cytotoxicity/anti-protozoal activity); for selectivity ratio at 72 h / T. cruzi SI (selectivity index, cytotoxicity/anti-protozoal activity): IC50 RAW cells / IC50 T. cruzi
Method: Cultures of Trypanosoma cruzi (epimastigotes, donated by the Parasitology Department of INLASA, Tc-INLASA, city, country), were maintained in medium LIT (pH 7.2), supplemented with 10% FBS and incubated at 26 °C. Medium changes were made every 72 h to maintain a viable parasitic population. Trypanocidal activity was determined according to Muelas-Serrano with some modifications. Samples were dissolved in DMSO (maximum final concentration 1%) at 10 mg/mL. Epimastigotes in logarithmic phase of growth, at a concentration of 3 × 10^6 parasites/mL, were distributed (100 μL/well) in 96-well flat bottom microtiter plates. Samples at different concentrations (3.1–100 μg/mL) were added (100 μL). Benznidazole (3.1–100 μg/mL) was used as the control drug. Assays were performed in triplicates. The microwell plates were incubated for 72 h at 26 °C. After incubation, a solution of XTT (1 mg/mL) in PBS (pH 7.0 at 37 °C) with PMS (0.06 mg/mL) was added (50 μL/well) and incubated for 4 h at 26 °C. The optical density of each well was measured and the IC50 values were calculated. A negative control experiments with only 1% DMSO was carried out, showing that the solvent by itself has no antiparasitic activity.

[2] = Cytotoxicity on RAW cells (resazurin, 72 h); settings: mouse
[3] = system: Leishmania amazonensis promastigotes; test: Leishmanicidal activity against L. amazonensis promastigotes (XTT, 72 h); settings: for IC50: 72 h; for selectivity ratio at 72 h: mouse (RAW cells), Leishmania amazonensis (parasite), L. amazoniensis SI (selectivity index, cytotoxicity/anti-protozoal activity); for selectivity ratio at 72 h / L. amazoniensis SI (selectivity index, cytotoxicity/anti-protozoal activity): IC50 RAW cells / IC50 L. amazonensis
[4] = system: Leishmania braziliensis promastigotes; test: Leishmanicidal activity against L. braziliensis promastigotes (XTT, 72 h); settings: for IC50: 72 h; for selectivity ratio at 72 h: mouse (RAW cells), Leishmania braziliensis (parasite), L. brasiliensis SI (selectivity index, cytotoxicity/anti-protozoal activity); for selectivity ratio at 72 h / L. brasiliensis SI (selectivity index, cytotoxicity/anti-protozoal activity): IC50 RAW cells / IC50 L. braziliensis
[5] = system: Raw 264.7 murine macrophage cell line; test: Cytotoxicity on RAW cells (resazurin, 72 h); settings: read-out: Cytotoxicity IC50; RAW cells, 72 h, average ± SD of at least three experiments
[6] = system: CB2 receptor; settings: cited from earlier work
[7] = system: Leishmania amazonensis promastigotes; settings: stated as previously investigated and reported, read-out: IC50 against L. amazonesis promastigotes; cited from earlier work
[8] = epimastigotes, average ± SD of at least three experiments, read-out: T. cruzi IC50
[9] = RAW 264.7 macrophage cells, Cytotoxicity IC50, RAW cells, 72 h, average ± SD of at least three experiments
[10] = Leishmania amazonensis, read-out: L. amazoniensis IC50, promastigotes, 72 h, average ± SD of at least three experiments
[11] = read-out: L. brasiliensis IC50, promastigotes, 72 h, average ± SD of at least three experiments
[12] = Trypanosoma cruzi, epimastigotes, average ± SD of at least three experiments, read-out: T. cruzi IC50
[13] = read-out: L. amazoniensis IC50, promastigotes, average ± SD of at least three experiments
[14] = read-out: L. brasiliensis IC50, promastigotes, average ± SD of at least three experiments

Compound	selectivity ratio at 72 h [1]	IC50 at 72 h [2, 9] [µM]	IC50 [3, 10] [µM]	selectivity ratio at 72 h [3]	IC50 [4, 11] [µM]	selectivity ratio at 72 h [4]	IC50 [1, 12] [µM]	IC50 at 72 h [2] [µM]	also measured
COc1ccc2c(c1)-c1cc(CO)ccc1CO2 [8a, (2-Methoxy-6H-benzo[c]chromen-9-yl)methanol]	1.3	82.6 ± 9.5	132 ± 29.3	0.6	248 ± 54.1	0.3	–	–	IC50 ([1]; Trypanosoma cruzi, read-out: T. cruzi IC50, epimastigotes, 72 h, average ± SD of at least three experiments): 66.6 µM; IC50 [1, 8]: 66 ± 18.2 µM
COc1ccc2c(c1)-c1cc(CO)ccc1C(C)O2 (stereo not shown) [8b, (2-Methoxy-6-methyl-6H-benzo[c]chromen-9-yl)methanol]	1	37.1 ± 3.9	–	–	156 ± 23.4	0.2	35.9 ± 11.7	–	L. amazoniensis SI (selectivity index, cytotoxicity/anti-protozoal activity) [3]: 0.2; IC50 [3, 13]: 156 ± 58.5 µM
COc1ccc2c(c1)-c1cc(CO)ccc1C(C)O2 (stereo not shown) [8c, (2-Methoxy-6-methyl-6H-benzo[c]chromen-9-yl)methanol]	–	–	–	–	–	–	–	–	T. cruzi SI (selectivity index, cytotoxicity/anti-protozoal activity) [1]: 0.8; IC50 [1, 8]: 67.1 ± 31.2 µM; IC50 [5]: 52.7 ± 9 µM; L. amazoniensis SI (selectivity index, cytotoxicity/anti-protozoal activity) [3]: 0.7; IC50 [3, 13]: 71.8 ± 12.5 µM; L. brasiliensis SI (selectivity index, cytotoxicity/anti-protozoal activity) [4]: 0.4; IC50 [4, 14]: 129 ± 24.6 µM
CCC1Oc2ccc(OC)cc2-c2cc(CO)ccc21 (stereo not shown) [8d, (6-Ethyl-2-methoxy-6H-benzo[c]chromen-9-yl)methanol]	0.6	30 ± 3.7	71.4 ± 1.1	0.4	45.9 ± 20.3	0.7	51.8 ± 9.2	–	–
CCC1Oc2ccc(OC)cc2-c2cc(CO)ccc21 (stereo not shown) [8e, (6-Ethyl-2-methoxy-6H-benzo[c]chromen-9-yl)methanol]	–	–	–	–	–	–	–	–	T. cruzi SI (selectivity index, cytotoxicity/anti-protozoal activity) [1]: 1.2; IC50 [1, 8]: 37 ± 0.7 µM; IC50 [5]: 44.4 ± 11.5 µM; L. amazoniensis SI (selectivity index, cytotoxicity/anti-protozoal activity) [3]: 0.6; IC50 [3, 13]: 70.3 ± 3.7 µM; L. brasiliensis SI (selectivity index, cytotoxicity/anti-protozoal activity) [4]: 1.0; IC50 [4, 14]: 45.1 ± 19.2 µM
CCC1(CC)Oc2ccc(OC)cc2-c2cc(CO)ccc21 [8f, (6,6-Diethyl-2-methoxy-6H-benzo[c]chromen-9-yl)methanol]	4.2	43.6 ± 15.1	36.9 ± 3.4	1.2	46.9 ± 5	0.9	10.4 ± 0.3	–	–
CCCCC1(CCCC)Oc2ccc(OC)cc2-c2cc(CO)ccc21 [8g, (6,6-Dibutyl-2-methoxy-6H-benzo[c]chromen-9-yl)methanol]	1.5	–	25.4 ± 1.1	1.4	29.3 ± 1.4	1.2	22.8 ± 8.5	35.3 ± 17.5	–
COc1ccc2c(c1)OC(C)(C)c1ccc(CO)cc1-2 [10a, (3-Methoxy-6,6-dimethyl-6H-benzo[c]chromen-9-yl)methanol]	0.7	–	66.6 ± 7.4	0.9	37.4 ± 1.1	1.6	88.4 ± 12.2	59.2 ± 25.9	–
COc1cccc2c1-c1cc(CO)ccc1C(C)(C)O2 [10b, (1-Methoxy-6,6-dimethyl-6H-benzo[c]chromen-9-yl)methanol]	0.5	–	180 ± 21.9	0.3	48.1 ± 18.5	1	92.5 ± 14.8	48.1 ± 18.5	–
Cc1ccc2c(c1)-c1cc(CO)ccc1C(C)(C)O2 [10c, (2,6,6-Trimethyl-6H-benzo[c]chromen-9-yl)methanol]	1.3	39.3 ± 1.6	64.9 ± 12.6	0.6	39.3 ± 2.4	1	31.5 ± 7.9	–	–
Cc1ccc2c(c1)OC(C)(C)c1ccc(CO)cc1-2 [10d, (3,6,6-Trimethyl-6H-benzo[c]chromen-9-yl)methanol]	1.1	–	51.9 ± 13.8	0.7	40.1 ± 8.3	0.9	33 ± 3.9	35.4 ± 7.9	–
CC1(C)Oc2ccccc2-c2cc(CO)ccc21 [10e, (6,6-Dimethyl-6H-benzo[c]chromen-9-yl)methanol]	1.2	62.4 ± 6.2	91.6 ± 5.4	0.7	74.9 ± 16.6	0.8	50.8 ± 6.2	–	–
CC(C)c1ccc2c(c1)-c1cc(CO)ccc1C(C)(C)O2 [10f, (2-Isopropyl-6,6-dimethyl-6H-benzo[c]chromen-9-yl)methanol]	0.7	–	15.6 ± 2.8	0.6	18.1 ± 0.7	0.5	12.4 ± 3.5	8.9 ± 3.5	–
CC(C)c1ccc2c(c1)OC(C)(C)c1ccc(CO)cc1-2 [10g, (3-Isopropyl-6,6-dimethyl-6H-benzo[c]chromen-9-yl)methanol]	1.6	–	21.2 ± 7.1	1	19.1 ± 1.1	1.1	14.2 ± 4.2	22 ± 7.1	–
CCCCCc1ccc2c(c1)-c1cc(CO)ccc1C(C)(C)O2 [10h, (6,6-Dimethyl-2-pentyl-6H-benzo[c]chromen-9-yl)methanol]	2	–	16.8 ± 1.9	0.8	16.4 ± 0.3	0.8	6.4 ± 0.3	12.9 ± 3.2	–
O=C(Cn1ccnc1[N+](=O)[O-])NCc1ccccc1 [Benznidazole, reference compound]	–	–	–	–	–	–	19.2 ± 7.7	–	T. cruzi SI (selectivity index, cytotoxicity/anti-protozoal activity) [1]: 3.9; IC50 [5]: 74.7 ± 9.1 µM
CCCCCc1cc(O)c2c(c1)OC(C)(C)c1ccc(C)cc1-2 [Cannabinol]	–	–	–	–	–	–	–	–	affinity for the CB2 receptor compared to THC [6]: 10 times
CCCCCCCCCCCCCCCCOP(=O)([O-])OCC[N+](C)(C)C [Miltefosine, reference compound]	–	–	–	–	13 ± 1.2	–	–	–	–
COc1ccc2c(c1)-c1cc(CO)ccc1C(C)(C)O2 [compound 1, pulchrol]	–	–	–	–	59.2 ± 11.8	–	18.5 ± 9.6	–	T. cruzi SI (selectivity index, cytotoxicity/anti-protozoal activity) [1]: 1.7; IC50 [7]: 77.7 µM; IC50 [5]: 30.7 ± 1.1 µM; L. amazoniensis SI (selectivity index, cytotoxicity/anti-protozoal activity) [3]: 0.4; L. brasiliensis SI (selectivity index, cytotoxicity/anti-protozoal activity) [4]: 0.5
